Experimental data published in PubChem BioAssay AID1919006 (Molecular Pharmacology Branch, DTP, NCI, 2023).

System: 885512-296-R-J2-PDC complex spheroid growth, % test/control
Assay: Anticancer human tumor 885512-296-R-J2-PDC patient-derived breast carcinoma cell line growth inhibition [AhR]
Conditions: for IC50: curve of first compound; for viability, T/C: stronger effect = lower value
Procedure, shortened: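 Agents were dosed in half-log steps down from roughly clinical Cmax, or from 10 microM where Cmax was unknown, alone and with AhR antagonists. Read-out: percent test/control growth of tumor spheroids containing HUVEC and MSC stromal cells.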

[1] = second compound 0.1 µM, first compound 0.0316 µM
[2] = second compound 0.1 µM, first compound 0.1 µM
[3] = second compound 0.1 µM, first compound 0.316 µM
[4] = second compound 0.1 µM, first compound 1 µM
[5] = second compound 0.1 µM, first compound 3.16 µM
[6] = second compound 0.1 µM, first compound 10 µM
[7] = second compound 0.316 µM, first compound 0.0316 µM
[8] = second compound 0.316 µM, first compound 0.1 µM
[9] = second compound 0.316 µM, first compound 0.316 µM
[10] = second compound 0.316 µM, first compound 1 µM
[11] = second compound 0.316 µM, first compound 3.16 µM
[12] = second compound 0.316 µM, first compound 10 µM
[13] = second compound 1 µM, first compound 0.0316 µM
[14] = second compound 1 µM, first compound 0.1 µM
[15] = second compound 1 µM, first compound 0.316 µM
[16] = second compound 1 µM, first compound 1 µM
[17] = second compound 1 µM, first compound 3.16 µM
[18] = second compound 1 µM, first compound 10 µM
[19] = second compound 3.16 µM, first compound 0.0316 µM
[20] = second compound 3.16 µM, first compound 0.1 µM
[21] = second compound 3.16 µM, first compound 0.316 µM
[22] = second compound 3.16 µM, first compound 1 µM
[23] = second compound 3.16 µM, first compound 3.16 µM
[24] = second compound 3.16 µM, first compound 10 µM
[25] = second compound 10 µM, first compound 0.0316 µM
[26] = second compound 10 µM, first compound 0.1 µM
[27] = second compound 10 µM, first compound 0.316 µM
[28] = second compound 10 µM, first compound 1 µM
[29] = second compound 10 µM, first compound 3.16 µM
[30] = second compound 10 µM, first compound 10 µM
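Further: spheroids exposed to compounds for seven days.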

Compound	IC50 (second compound 0.1 µM) [nM]	IC50 (second compound 0.316 µM) [nM]	IC50 (second compound 1 µM) [nM]	IC50 (second compound 3.16 µM) [nM]	IC50 (second compound 10 µM) [nM]	viability, T/C [1] [%]	viability, T/C [2] [%]	viability, T/C [3] [%]	viability, T/C [4] [%]	viability, T/C [7] [%]	viability, T/C [8] [%]	viability, T/C [9] [%]	viability, T/C [10] [%]	viability, T/C [13] [%]	viability, T/C [14] [%]	viability, T/C [15] [%]	viability, T/C [16] [%]	viability, T/C [19] [%]	viability, T/C [20] [%]	viability, T/C [21] [%]	also measured
CC(C)c1c(-c2ccccc2)nc2c(C#N)c[nH]n2c1=O + CC(CO)NC(=O)c1cc(-c2ccc(Cl)cc2)nn(-c2cnn(C)c2)c1=O	> 10000	> 10000	> 10000	> 10000	> 10000	110	101	97.6	98	105	101	104	102	105	96.4	107	91.7	108	104	99.5	viability, T/C [5]: 98.2%; viability, T/C [6]: 85.5%; viability, T/C [11]: 93.3%; viability, T/C [12]: 91.7%; viability, T/C [17]: 99.1%; viability, T/C [18]: 89.2%; viability, T/C [22]: 111%; viability, T/C [23]: 105%; viability, T/C [24]: 89.7%; viability, T/C [25]: 109%; viability, T/C [26]: 91.2%; viability, T/C [27]: 86.9%; viability, T/C [28]: 102%; viability, T/C [29]: 97.2%; viability, T/C [30]: 77%
CC1COCCN1c1cc(-c2ccnn2C)c2ccnc(-c3ccn[nH]3)c2n1 (stereo not given) + CC(CO)NC(=O)c1cc(-c2ccc(Cl)cc2)nn(-c2cnn(C)c2)c1=O	43.1	34.1	35.1	29.1	19.6	67.8	10.4	3.86	2.47	54.2	10.6	3.26	2.5	53.4	10.7	2.7	2.39	47	6.94	2.32	viability, T/C (second compound 0.1 µM, first compound 0.00316 µM): 112%; viability, T/C (second compound 0.1 µM, first compound 0.01 µM): 87.6%; viability, T/C (second compound 0.316 µM, first compound 0.00316 µM): 96.6%; viability, T/C (second compound 0.316 µM, first compound 0.01 µM): 84.4%; viability, T/C (second compound 1 µM, first compound 0.00316 µM): 93.4%; viability, T/C (second compound 1 µM, first compound 0.01 µM): 91.7%; viability, T/C (second compound 3.16 µM, first compound 0.00316 µM): 91.2%; viability, T/C (second compound 3.16 µM, first compound 0.01 µM): 87.7%; viability, T/C [22]: 2.05%; viability, T/C (second compound 10 µM, first compound 0.00316 µM): 90.5%; viability, T/C (second compound 10 µM, first compound 0.01 µM): 84.2%; viability, T/C [25]: 25.7%; viability, T/C [26]: 4.34%; viability, T/C [27]: 2.45%; viability, T/C [28]: 2.06%
COc1ccc([C@@H](O)c2cc(-c3ncnc4cc(N5CCOCC5)ccc34)c(F)cc2Cl)nn1 + CC(CO)NC(=O)c1cc(-c2ccc(Cl)cc2)nn(-c2cnn(C)c2)c1=O	> 10000	9460	> 10000	> 10000	4760	85.7	97.2	91.2	90.7	94.1	92.1	82.8	86.3	103	112	95.6	91.2	89.6	92.1	91.5	viability, T/C [5]: 73.2%; viability, T/C [6]: 50.2%; viability, T/C [11]: 63.6%; viability, T/C [12]: 49.5%; viability, T/C [17]: 78%; viability, T/C [18]: 51.4%; viability, T/C [22]: 74.2%; viability, T/C [23]: 68.6%; viability, T/C [24]: 51.3%; viability, T/C [25]: 88.1%; viability, T/C [26]: 83.6%; viability, T/C [27]: 83.2%; viability, T/C [28]: 72.1%; viability, T/C [29]: 56.6%; viability, T/C [30]: 38.1%
COc1cccc2c1C(=O)c1c(O)c3c(c(O)c1C2=O)CC(O)(C(=O)CO)CC3OC1CC(N)C(O)C(C)O1 (stereo not given) + Cc1ccccc1N=Nc1ccc(NC(=O)c2ccnn2C)c(C)c1	< 31.6	< 31.6	< 31.6	< 31.6	< 31.6	15.3	14.2	2.62	0.35	16	14.5	3.8	0.52	16	12.7	2.55	0.36	15.9	13.5	2.36	viability, T/C [5]: 1.6%; viability, T/C [6]: 1.27%; viability, T/C [11]: 1.44%; viability, T/C [12]: 1.34%; viability, T/C [17]: 1.75%; viability, T/C [18]: 1.27%; viability, T/C [22]: 0.36%; viability, T/C [23]: 1.22%; viability, T/C [24]: 0.78%; viability, T/C [25]: 13.2%; viability, T/C [26]: 10.1%; viability, T/C [27]: 1.82%; viability, T/C [28]: 0.82%; viability, T/C [29]: 1.07%; viability, T/C [30]: 1.04%
